Key:
[1] = target: T1, Serine/threonine-protein kinase 17B (Homo sapiens, UniProt O94768); assay: Binding affinity to DRAK2 (unknown origin) ATP site
T1 sequence (O94768 whole entry): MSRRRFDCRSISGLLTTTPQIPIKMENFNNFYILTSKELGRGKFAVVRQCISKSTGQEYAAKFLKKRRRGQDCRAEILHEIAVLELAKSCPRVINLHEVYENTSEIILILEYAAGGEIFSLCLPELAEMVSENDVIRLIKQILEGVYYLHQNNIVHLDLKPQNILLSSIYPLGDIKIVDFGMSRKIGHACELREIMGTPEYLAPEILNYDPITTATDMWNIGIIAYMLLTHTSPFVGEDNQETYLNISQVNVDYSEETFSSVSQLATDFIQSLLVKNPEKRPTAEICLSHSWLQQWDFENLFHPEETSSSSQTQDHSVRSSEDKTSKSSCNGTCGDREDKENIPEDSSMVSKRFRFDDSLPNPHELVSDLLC

[2] = target: T1, Serine/threonine-protein kinase 17B; assay: Inhibition of DRAK2 (unknown origin) using 33P-ATP after 30 mins by Trilux scintillation counting
[3] = target: T1, Serine/threonine-protein kinase 17B; assay: Inhibition of DRAK2 (unknown origin) using 1 uM ATP by biochemical assay
[4] = target: T1, Serine/threonine-protein kinase 17B; assay: Inhibition of DRAK2 (unknown origin) using 5 uM ATP by biochemical assay
[5] = target: T1, Serine/threonine-protein kinase 17B; assay: Inhibition of DRAK2 (unknown origin) using 10 uM ATP by biochemical assay
[6] = target: T1, Serine/threonine-protein kinase 17B; assay: Inhibition of DRAK2 (unknown origin) using 25 uM ATP by biochemical assay
[7] = target: T1, Serine/threonine-protein kinase 17B; assay: Inhibition of DRAK2 (unknown origin) using 50 uM ATP by biochemical assay
[8] = target: T1, Serine/threonine-protein kinase 17B; assay: Inhibition of DRAK2 (unknown origin) using 100 uM ATP by biochemical assay
[9] = target: T1, Serine/threonine-protein kinase 17B; assay: Inhibition of DRAK2 (unknown origin) using 250 uM ATP by biochemical assay
[10] = target: T1, Serine/threonine-protein kinase 17B; assay: Inhibition of DRAK2 (unknown origin) using 500 uM ATP by biochemical assay

Row | SMILES | Kd [1] [nM] | further results
1 | COc1cc(-c2cnc3snc(NC(=O)C4CCCCC4)c3c2)ccc1O | 2000 | 
2 | COc1ccc(-c2cnc3snc(NC(=O)C4CCCCC4)c3c2)cc1OC | 1600 | 
3 | O=C(Nc1nsc2ncc(-c3cccs3)cc12)C1CCCCC1 | 1900 | 
4 | O=C(Nc1nsc2ncc(-c3ccsc3)cc12)C1CCCCC1 | 1600 | 
5 | COc1ccc(-c2cnc3snc(NC(=O)C4CCCC4)c3c2)cc1OC | 2200 | 
6 | COc1ccc(-c2cnc3snc(NC(=O)C4CCCCCC4)c3c2)cc1OC | 530 | 
7 | COc1ccc(-c2cnc3snc(NC(=O)C4CCNCC4)c3c2)cc1OC | 7200 | 
8 | COc1ccc(-c2ccc3scc(NC(=O)C4CCCCC4)c3c2)cc1OC | 510 | 
9 | COc1ccc(-c2cnc3scc(NC(=O)C4CCCCC4)c3c2)cc1OC | 9 | IC50 [2]: 860 nM; IC50 [3]: 370 nM; IC50 [4]: 510 nM; IC50 [5]: 530 nM; IC50 [6]: 650 nM; IC50 [7]: 720 nM; IC50 [8]: 990 nM; IC50 [9]: 1470 nM; IC50 [10]: 2220 nM
10 | COc1ccc(-c2cnc3scc(NC(=O)C4CCCCC4)c3n2)cc1OC | 27 | IC50 [2]: 1780 nM
11 | COc1ccc(-c2ccc3snc(NC(=O)C4CCCCC4)c3c2)cc1OC | 2700 | 

More lines, in order of falling Kd [1], values ahead:

Row | Kd [1] [nM] | SMILES | further results
12 | 3200 | O=C(Nc1nsc2ncc(-c3ccc(O)cc3)cc12)C1CCCCC1 | 
13 | 2300 | Nc1cccc(-c2cnc3snc(NC(=O)C4CCCCC4)c3c2)c1 | 
14 | 1600 | COc1ccc(-c2cnc3snc(NC(=O)C4CCC4)c3c2)cc1OC | 
15 | 960 | COc1ccc(-c2ccc3onc(NC(=O)C4CCCCC4)c3c2)cc1OC | 
16 | 660 | COc1cc(-c2cnc3snc(NC(=O)C4CCCCC4)c3c2)ccc1N | 
17 | 180 | COc1ccc(-c2cnc3ncnc(NC(=O)C4CCCCC4)c3n2)cc1OC | 
18 | 33 | COc1ccc(-c2cnc3[nH]cc(NC(=O)C4CCCCC4)c3c2)cc1OC | 

— ChEMBL document CHEMBL3352458, “Discovery of dual death-associated protein related apoptosis inducing protein kinase 1 and 2 inhibitors by a scaffold hopping approach” (J Med Chem, 2014)
